Laboratory results as given in patent US20240270821A1, “GIP/GLP1/GCG TRI-RECEPTOR AGONISTS AND USES THEREOF” (priority 2023, published 2024).
Where two headings read alike, the source gives them in different places. Starred links: 1 amine or outer side, 2 acyl side, 3 side chain; linkers in the order of their positions; H or OH if unused. Non-standard residues stand in square brackets, D forms with d. Residues, ends and D or L forms follow the SMILES beside them. Groups on a side chain read outwards from the residue. No end group written: not given here. *: point of attachment. C20 diacid = O=C(O)CCCCCCCCCCCCCCCCCCC(=O)*; C18 diacid = O=C(O)CCCCCCCCCCCCCCCCC(=O)*; Phe(4-CN) = N#Cc1ccc(C[C@H](N)C(=O)O)cc1; αMePhe(2-F) = C[C@](N)(Cc1ccccc1F)C(=O)O; γGlu = O=C(O)[C@H](CCC(=O)[*:2])N[*:1]; αMe4Pal = C[C@](N)(Cc1ccncc1)C(=O)O; αMeY = C[C@](N)(Cc1ccc(O)cc1)C(=O)O; αMeF = C[C@](N)(Cc1ccccc1)C(=O)O; 4Pal = N[C@@H](Cc1ccncc1)C(=O)O; αMeL = CC(C)C[C@](C)(N)C(=O)O; αMeS = C[C@](N)(CO)C(=O)O; Orn = NCCC[C@H](N)C(=O)O; AEEA = NCCOCCOCC(=O)O; Aib = CC(C)(N)C(=O)O

Assays:
Assay type in all cases: cell-based
hGIPR [1] = target: T1, hGIPR (Homo sapiens, UniProt P48546); assay: Functional cAMP activation in the presence of 0.1% casein (no HSA); conditions: read-out: Relative cAMP EC50, hGIPR;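 also: intracellular cAMP rise after 30 min at 37 °C read by HTRF against a standard curve, scaled between buffer alone (0%) and top control ligand concentration (100%), four-parameter fit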
T1 sequence (P48546 22-466): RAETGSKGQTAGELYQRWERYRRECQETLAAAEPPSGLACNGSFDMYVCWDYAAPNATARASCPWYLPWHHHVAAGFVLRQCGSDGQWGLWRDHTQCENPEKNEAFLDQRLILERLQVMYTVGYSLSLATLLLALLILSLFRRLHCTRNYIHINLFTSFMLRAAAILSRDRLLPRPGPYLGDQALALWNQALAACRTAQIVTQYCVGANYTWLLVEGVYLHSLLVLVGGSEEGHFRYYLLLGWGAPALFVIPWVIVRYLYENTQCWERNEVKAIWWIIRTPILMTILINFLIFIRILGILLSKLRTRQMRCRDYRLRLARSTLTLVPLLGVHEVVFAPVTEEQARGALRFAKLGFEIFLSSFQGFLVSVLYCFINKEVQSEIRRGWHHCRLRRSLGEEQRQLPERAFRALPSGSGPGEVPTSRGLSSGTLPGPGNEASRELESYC

hGLP-1R [2] = target: T2, hGLP-1R (Homo sapiens, UniProt P43220); assay: as above; conditions: read-out: Relative cAMP EC50, hGLP-1R;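 also: intracellular cAMP rise after 30 min at 37 °C read by HTRF, normalized between buffer only (0%) and maximal control ligand (100%), four-parameter variable-slope fit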
human GcgR = human GcgR (Homo sapiens, UniProt P47871); assay: Functional cAMP activity in the presence of 1% HSA; conditions: read-out: cAMP Rel EC50, hGcgR
hGcgR = hGcgR (Homo sapiens, UniProt P47871); assay: Functional cAMP activation in the presence of 0.1% casein (no HSA); conditions: read-out: Relative cAMP EC50, hGcgR;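 also: intracellular cAMP rise after 30 min at 37 °C, read by HTRF against a cAMP standard curve, scaled from buffer only (0%) to maximal control ligand response (100%)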
hGIPR [3] = target: T1, hGIPR; assay: Functional cAMP activity in the presence of 1% HSA; conditions: read-out: cAMP Rel EC50, hGIPR
hGLP-1R [4] = target: T2, hGLP-1R; assay: Functional cAMP activity in the presence of 1% HSA; conditions: read-out: cAMP Rel EC50, hGLP-1R
[5] = in the presence of 0.1% casein (no HSA), geometric mean
[6] = in the presence of 0.1% casein (no HSA), geometric mean of relative EC50
[7] = HEK-293 clonal cell line, 1% HSA, geometric mean of relative EC50
[8] = 0.1% casein, no HSA, geometric mean

T2 sequence (P43220 24-463): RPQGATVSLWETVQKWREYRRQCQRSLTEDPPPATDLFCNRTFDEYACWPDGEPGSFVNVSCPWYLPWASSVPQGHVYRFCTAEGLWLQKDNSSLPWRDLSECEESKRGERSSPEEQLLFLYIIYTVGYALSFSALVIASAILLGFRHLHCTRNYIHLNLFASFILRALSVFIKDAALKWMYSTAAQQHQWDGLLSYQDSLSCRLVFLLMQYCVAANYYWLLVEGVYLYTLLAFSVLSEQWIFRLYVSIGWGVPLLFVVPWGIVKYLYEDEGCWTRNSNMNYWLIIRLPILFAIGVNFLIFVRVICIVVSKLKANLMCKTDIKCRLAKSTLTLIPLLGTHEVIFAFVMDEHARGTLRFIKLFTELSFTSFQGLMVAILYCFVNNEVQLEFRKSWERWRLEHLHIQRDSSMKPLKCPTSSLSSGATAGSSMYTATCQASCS
hGcgR, sequence (P47871 26-477): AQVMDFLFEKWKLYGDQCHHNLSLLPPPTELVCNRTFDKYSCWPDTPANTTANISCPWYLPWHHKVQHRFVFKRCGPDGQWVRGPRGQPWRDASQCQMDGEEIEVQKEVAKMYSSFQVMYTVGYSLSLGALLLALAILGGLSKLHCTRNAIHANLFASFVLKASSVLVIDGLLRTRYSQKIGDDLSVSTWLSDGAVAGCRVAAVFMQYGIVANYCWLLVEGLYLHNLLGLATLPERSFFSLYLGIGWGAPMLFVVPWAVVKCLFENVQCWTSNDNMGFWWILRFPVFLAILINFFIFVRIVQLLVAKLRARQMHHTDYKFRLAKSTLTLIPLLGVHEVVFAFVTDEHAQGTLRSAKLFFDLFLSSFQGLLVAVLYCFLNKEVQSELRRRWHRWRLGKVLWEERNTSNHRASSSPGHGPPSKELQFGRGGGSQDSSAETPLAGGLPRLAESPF
human GcgR, sequence (P47871 26-477): as above

Row | Compound | EC50 (hGIPR [1]; [5]) [nM] | EC50 (hGLP-1R [2]; [5]) [nM] | EC50 (human GcgR) [nM] | EC50 (hGcgR; [5]) [nM] | EC50 (hGIPR [3]) [nM] | EC50 (hGLP-1R [4]) [nM] | further results
1 | H-Y[Aib]QGTFTSD[4Pal]SQ[αMeL]LDKK([AEEA-γGlu-C18 diacid])AQ[αMe4Pal]AFIEYLIAGGPSSGAPPPSGSEE-NH2 [Example 1029] | 0.163 | 1.79 | 511 | 5.35 | 22.3 | 170 | 
2 | H-Y[Aib]QGT[αMePhe(2-F)]TSD[4Pal]SI[αMeL]LDKK([γGlu-γGlu-C18 diacid])AQ[Aib][Orn]FIEYLTEGGPSSGEPPPEGSEE-NH2 [Example 652] |  |  |  |  |  |  | EC50 (hGIPR [1]; [6]): 0.0342 nM; EC50 (hGLP-1R [2]; [6]): 0.426 nM; EC50 (human GcgR; [7]): 764 nM; EC50 (hGcgR; [6]): 15.3 nM; EC50 (hGIPR [3]; [7]): 1.92 nM; EC50 (hGLP-1R [4]; [7]): 26.8 nM
3 | H-Y[Aib]QGT[αMePhe(2-F)]TSD[4Pal]SILLDKK([γGlu-γGlu-C18 diacid])AQ[Aib]AFIE[αMeY]LEEGGPSSGAPPPSGGGE-NH2 [Example 668] |  |  | 203 |  | 1.69 | 27.1 | EC50 (hGIPR [1]): 0.0198 nM; EC50 (hGLP-1R [2]): 0.325 nM; EC50 (hGcgR): 2.03 nM
4 | H-Y[Aib]Q[dA]T[αMePhe(2-F)]TSD[4Pal]SI[αMeL]LD[Orn]K([AEEA-γGlu-C18 diacid])AQ[αMe4Pal]EFI[dE][αMeY]LVEGGPSSGAPPPSGS-NH2 [Example 1205] |  |  | 325 |  | 16.3 | 50 | EC50 (hGIPR [1]; [8]): 0.152 nM; EC50 (hGLP-1R [2]; [8]): 0.523 nM; EC50 (hGcgR; [8]): 3.33 nM
5 | Y[Aib]QGT[αMeF]TSD[4Pal][αMeS]I[αMeL]LD[Orn]K([AEEA-γGlu-C18 diacid])AQ[αMe4Pal]EFI[dE][αMeY]LIEGGPSSGEPPPSGGGE-NH2 [Example 1169] | 0.011 | 0.613 | 304 | 2.43 | 1.18 | 80 | 
6 | H-Y[Aib]QGT[αMeF]TSD[4Pal][αMeS]I[αMeL]LD[Orn]K([γGlu-γGlu-C18 diacid])AQ[αMe4Pal]EFI[dE][αMeY]LIEGGPSSGAPPPSGSE-NH2 [Example 1172] | 0.00886 | 0.44 | 303 | 2.52 | 0.7 | 45.5 | 
7 | Y[Aib]QGTFTSD[4Pal]S[Orn][αMeL]LDKK([γGlu-γGlu-C18 diacid])AQ[αMe4Pal]AFIE[αMe4Pal]LIE[Aib]GPSSGEPPPSGS-NH2 [Example 989] | 0.103 | 3.92 | 247 | 2.27 | 8 | 402 | 
8 | H-Y[Aib]QGTFTSD[4Pal]SQ[αMeL]LDKK([AEEA-γGlu-C18 diacid])AQ[αMe4Pal]AFIEWLIEGGPSSGAPPPSGS-NH2 [Example 830] | 0.132 | 0.791 | 809 | 3.21 | 44.8 | 180 | 
9 | CC[C@H](C)[C@H](NC(=O)[C@H](Cc1ccccc1)NC(=O)[C@H](C)NC(=O)C(C)(C)NC(=O)[C@H](CCC(N)=O)NC(=O)[C@H](C)NC(=O)[C@H](CCCCNC(=O)COCCOCCNC(=O)CC[C@H](NC(=O)CCCCCCCCCCCCCCCCC(=O)O)C(=O)O)NC(=O)[C@H](CCCCN)NC(=O)[C@H](CC(=O)O)NC(=O)[C@H](CC(C)C)NC(=O)[C@H](CC(C)C)NC(=O)[C@H](CCC(=O)O)NC(=O)[C@](C)(CO)NC(=O)[C@H](Cc1ccc(O)cc1)NC(=O)[C@H](CC(=O)O)NC(=O)[C@H](CO)NC(=O)[C@@H](NC(=O)[C@](C)(Cc1ccccc1F)NC(=O)[C@@H](NC(=O)CNC(=O)[C@H](CCC(N)=O)NC(=O)C(C)(C)NC(=O)[C@@H](N)Cc1ccc(O)cc1)[C@@H](C)O)[C@@H](C)O)C(=O)N[C@@H](CCC(=O)O)C(=O)N[C@@H](Cc1ccc(O)cc1)C(=O)N[C@@H](CC(C)C)C(=O)N[C@@H](CCC(=O)O)C(=O)N[C@@H](CCC(=O)O)C(=O)NCC(=O)NCC(=O)N1CCC[C@H]1C(=O)N[C@@H](CO)C(=O)N[C@@H](CO)C(=O)NCC(=O)N[C@@H](C)C(=O)N1CCC[C@H]1C(=O)N1CCC[C@H]1C(=O)N1CCC[C@H]1C(=O)N[C@@H](CCC(=O)O)C(N)=O [Example 467] (H-Y[Aib]QGT[αMePhe(2-F)]TSDY[αMeS]ELLDKK([AEEA-γGlu-C18 diacid])AQ[Aib]AFIEYLEEGGPSSGAPPPE-NH2) |  |  | 850 |  | 10.7 | 36.4 | EC50 (hGIPR [1]): 0.0855 nM; EC50 (hGLP-1R [2]): 0.358 nM; EC50 (hGcgR): 9.34 nM
10 | H-Y[Aib]QGT[αMePhe(2-F)]TSD[Phe(4-CN)]SKLLDKIAQK([AEEA-γGlu-C20 diacid])AFIEYLIEGGPSSGEPPPSGS-NH2 [Example 364] | 0.457 | 1.1 | 3190 | 10.2 | 101 | 260 | 
11 | H-Y[Aib]QGTFTSD[4Pal]S[Orn][αMeL]LDKK([AEEA-γGlu-γGlu-C18 diacid])AQ[αMe4Pal]AFIE[αMe4Pal]LIE[Aib]GPSSGEPPPSGSE-NH2 [Example 988] | 0.198 | 9.5 | 320 | 2.52 | 11.8 | 743 | 
12 | H-Y[Aib]QGTFTSD[4Pal]SQ[αMeL]LDKK([γGlu-γGlu-C18 diacid])AQ[αMe4Pal]AFIE[αMe4Pal]LIE[Aib]GPSSGAPPPSGE-NH2 [Example 1120] | 0.096 | 4.5 | 291 | 5.17 | 9.21 | 171 | 
13 | H-Y[Aib]QGTFTSD[4Pal][αMeS]Q[αMeL]LD[Orn]K([dE-γGlu-C18 diacid])AQ[αMe4Pal]QFIQ[αMeY]LIE[Aib]GPSSGEPPPSGGGE-NH2 [Example 1183] | 0.0484 | 0.769 | 127 | 1.38 | 3.16 | 53.6 | 
14 | H-Y[Aib]QGTFTSDYSI[αMeL]LD[Orn]QAAK([AEEA-AEEA-γGlu-C20 diacid])QFVEWLLA[Aib]GPSSGEPPPSEG-NH2 [Example 328] | 0.544 | 1.3 | 2040 | 10.3 | 91.1 | 462 | 
15 | H-Y[Aib]QGT[αMePhe(2-F)]TSD[Phe(4-CN)]SILLDKQAQK([AEEA-AEEA-γGlu-C20 diacid])AFIQYLLEGGPSSGEPPPSEG-NH2 [Example 353] | 0.127 | 0.634 | 3080 | 11 | 53.7 | 222 | 
16 | H-Y[Aib]QGT[αMePhe(2-F)]TSD[4Pal]SILLDKK([γGlu-γGlu-C18 diacid])AQ[Aib]AFIEYLEEGGPSSGEPPPSGTEE-NH2 [Example 608] |  |  | 669 |  | 8.51 | 201 | EC50 (hGIPR [1]): 0.124 nM; EC50 (hGLP-1R [2]): 1.87 nM; EC50 (hGcgR): 7.82 nM
17 | H-Y[Aib]QGT[αMePhe(2-F)]TSD[4Pal]SI[αMeL]LD[Orn]K([γGlu-γGlu-C18 diacid])AQ[αMe4Pal][Orn]FI[dE][αMeY]LIEGGPSSGEPPPEGE-NH2 [Example 683] |  |  | 137 |  | 0.492 | 14.3 | EC50 (hGIPR [1]): 0.00798 nM; EC50 (hGLP-1R [2]): 0.214 nM; EC50 (hGcgR): 1.57 nM
18 | H-Y[Aib]QGT[αMePhe(2-F)]TSD[4Pal]SI[αMeL]LD[Orn]K([AEEA-γGlu-C18 diacid])AQ[αMe4Pal]EFI[dE][αMeY]LLEGGPSSGAPPPSGE-NH2 [Example 615] |  |  | 697 |  | 0.95 | 82.9 | EC50 (hGIPR [1]): 0.00825 nM; EC50 (hGLP-1R [2]): 0.575 nM; EC50 (hGcgR): 3.93 nM
